Experiments:
CpG-ODNs = settings: ref [8]; cited from earlier work
Source text: (§1) In neutrophils, bacteria and pathogen-associated molecular patterns (PAMPs) that are expressed by microorganisms are recognized by Toll-like receptors (TLRs). In particular, the mechanisms of immunoregulatory activity of CpG-containing bacterial or synthetic DNA fragments include their interaction with TLR9 receptors, known as DNA sensors. Therefore, synthetic peptides that mimics DNA recognizing regions of the receptor can be effective modulators of neutrophil cell responses. The crystal structure of TLR9 was analyzed and it was predicted that leucine-rich repeats (L ...

[1] = system: mouse-derived monocyte/macrophage cell line RAW 264.7; settings: ref [9]; cited from earlier work
Source text: as §1

[2] = system: TLR9 signaling in RAW 264.7; settings: ref [9]; cited from earlier work
Source text: as §1

NeutrAvidin [3] = assay: TSM acoustic biosensor, unspecific binding to NeutrAvidin in the absence of ODNs
Source text: To characterize the interaction of the studied synthetic ODNs with the LRR11 peptide, we applied the thickness shear mode (TSM) acoustic biosensor method, which is based on the investigation of ultrasonic waves in piezoelectric materials such as AT-cut quartz. This approach involved immobilizing a 5′-biotinylated ODN on the surface of TSM transducer covered by NeutrAvidin and then adding the LRR11 peptide. An unrelated peptide (URP) with a random primary structure ([…]) was used as a negative control. The measurement procedure was divided into several steps, in which each immobilization stage was followed by washing with an appropriate buffer solution; when peptide solutions at different concentrations (from 1 to 100 nM) were added to the surface-modified TSM transducer, a wash with Hanks buffer was used before increasing the peptide concentration.
Eight MHz AT-cut piezoelectric quartz crystal transducer was obtained from CH Instruments, Austin, TX, USA. The transducer was covered on both sides with thin layers of gold that served as electrodes (working area 0.2 cm^2). Prior ODNs immobilization, the crystal was carefully cleaned with basic Piranha solution (29% NH3, 30% H2O and H2O2 with volumetric 1:5:1 ratio, respectively) for 25 min. After the thorough cleaning, the crystal was positioned between two silicon O-rings in a flow-through cell. […]

NeutrAvidin [4] = assay: TSM acoustic biosensor, immobilization of 5′-biotinylated C-CpG on NeutrAvidin surface; assay type: binding; settings: Sauerbrey's equation, 1 μM 5′-biotinylated ODN on NeutrAvidin
Source text: Using Sauerbrey’s Equation (2), (2) Δf=−2f02Δm/Aμqρq where f0 is the fundamental resonance frequency (in our case 8 MHz), Δm is the change in mass (in grams) of the adsorbed layer on the crystal surface, A is the effective crystal area (in our case 0.2 cm^2), μq = 2.947 × 10^11 g × cm^−1s^−2 is the shear modulus of elasticity, and ρq = 2.648 g × cm^−3 is the crystal density, surface concentrations of NeutrAvidin, ODN and LRR11 peptide were estimated based on changes of resonance frequency (Figure 4). According to Equation (2), the surface density of molecules, σ (in molecules/cm^2), can be calculated as σ = ΔmNA/(A × Mw), where NA is Avogadro’s number (=6.023 × 10^23 mol^−1), and Mw represents the molecular weight of the corresponding compound (NeutrAvidin: 65 kDa, 5′-biotinylated C-CpG: 7115.4 Da, and LRR11: 3421 Da). Based on this approach, we obtained the following surface concentration values: 1.94 × 10^13 cm^−2 for NeutrAvidin, 3.37 × 10^13 cm^−2 for C-CpG and 2.4 × 10^13 cm^−2 for LRR11. The NeutrAvidin has four binding sites, two of which are available for biotinylated ODN binding. This is due to the fact that the other two sites are inaccessible due to NeutrAvidin chemisorption on the TSM surface. Thus, the number of available binding sites for the ODN is 3.88 × 10^13 cm^−2. […] Therefore, the surface of the TSM transducer is practically completely saturated by C-CpG. […]

## QLRKLNLSFNYQKRVSFAHLSLAPSFGSLV [LRR11, 30 amino acid peptide from leucine-rich repeat of TLR9]
CpG-ODNs
  binding to CpG-ODNs: can bind to the CpG-ODNs
[1]
  effect on oligonucleotide internalization: decrease in the oligonucleotide internalization
[2]
  effect on TLR9 signaling: attenuating of TLR9 signaling
NeutrAvidin [3]
  unspecific binding to NeutrAvidin: no unspecific biding

## 5′-tcgtcgttttcggcgcgcgccg-3′ (DNA TCGTCGTTTTCGGCGCGCGCCG; chemistry not fully specified) [C-CpG]
NeutrAvidin [4]
  surface concentration of C-CpG: 3.37 × 10^13 cm^−2

Source: article PMC7961786, “Magic Peptide: Unique Properties of the LRR11 Peptide in the Activation of Leukotriene Synthesis in Human Neutrophils” (International Journal of Molecular Sciences, 2021)
